Assay results as given in patent publication US20040005342A1, “Topical administration of ascorbic acid to reinforce the cohesion of the dermo-epidermal junction” (SOCIETE L'OREAL S.A., priority 2002, published 2004).

How the values were obtained:
Type in all cases: cell-based, human
collagen VII = test: Immunofluorescence of collagen VII in reconstructed skin sections
tenascin = test: Immunofluorescence of tenascin in reconstructed skin sections
[1] = tested on: fibroblasts in the lattice of reconstructed skin; test: Reconstructed skin grown with vitamin C in the culture medium: number of fibroblasts; details: vitamin C in culture medium throughout the phase of emersion
Description: This increase is associated with a greater production of certain proteins of the extracellular matrix, in particular in the sub-epidermal zone. The most spectacular results are found in this region of the dermo-epidermal junction, with a more perpendicular arrangement of the basal keratinocytes and an increased synthesis of major components of the basal membrane, for instance tenascin and collagen VII.

[2] = reconstructed skin, vitamin CPMg 2.8′10^−4 M, 7-day emersion phase, × control

SMILES: O=C1O[C@H]([C@@H](O)CO)C([O-])=C1OP(=O)([O-])[O-].O=C1O[C@H]([C@@H](O)CO)C([O-])=C1OP(=O)([O-])[O-].[Mg+2].[Mg+2].[Mg+2] [Vitamin C, magnesium ascorbyl phosphate]
- Intensity and thickness of the zone of collagen VII fluorescence at the dermo-epidermal junction, versus sample without vitamin C (collagen VII; microscopic observation, FIG. 1): much greater
- Collagen VII fluorescence intensity/unit of length (collagen VII; reconstructed skin, vitamin CPMg 2.8′10^−4 M during 7-day emersion phase, image analysis, normalized to identical length of dermo-epidermal junction, control 1.35): 2.50 arbitrary units
- Collagen VII fluorescence intensity/unit of length, factor versus control (collagen VII; [2]): 1.85
- Intensity and thickness of the zone of tenascin fluorescence (dermo-epidermal junction and superficial dermis), versus sample without vitamin C (tenascin; microscopic observation, FIG. 2): much larger
- Tenascin fluorescence intensity/unit of length (tenascin; reconstructed skin, vitamin CPMg 2.8′10^−4 M during 7-day emersion phase, image analysis, standardized to identical length of dermo-epidermal junction, control 6.4): 11.54 arbitrary units
- Tenascin fluorescence intensity/unit of length, factor versus control (tenascin; [2]): 1.80
- Number of fibroblasts in the lattice [1]: very large increase
